We go through 23 molecules from US11111251B2, “Positive allosteric modulators of the muscarinic acetylcholine receptor M1” (Vanderbilt University, priority 2016, dated 2021).

For the test, the target named is T1, human mAChR M1 (Homo sapiens, UniProt P11229).
T1 sequence (P11229 1-460): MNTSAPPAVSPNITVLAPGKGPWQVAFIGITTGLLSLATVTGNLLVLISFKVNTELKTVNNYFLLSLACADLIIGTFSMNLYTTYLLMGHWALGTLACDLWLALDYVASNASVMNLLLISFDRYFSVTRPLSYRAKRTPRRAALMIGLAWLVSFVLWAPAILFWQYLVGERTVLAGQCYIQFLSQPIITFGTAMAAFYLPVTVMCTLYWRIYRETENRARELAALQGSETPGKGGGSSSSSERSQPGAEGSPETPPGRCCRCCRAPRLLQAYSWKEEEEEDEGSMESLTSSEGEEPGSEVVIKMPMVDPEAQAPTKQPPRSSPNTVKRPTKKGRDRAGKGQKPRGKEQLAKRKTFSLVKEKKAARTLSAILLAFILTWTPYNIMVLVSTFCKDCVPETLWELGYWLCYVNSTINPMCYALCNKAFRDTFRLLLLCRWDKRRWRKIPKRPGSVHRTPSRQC
In words: mAChR M1 cell-based functional assay: calcium mobilization, positive allosteric modulator mode (increase in EC20 acetylcholine response). To be noted: for Emax: read-out: Human M1 Emax (%). The method, boiled down: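 PAM potency reflects the concentration-dependent increase in calcium response to an EC20 acetylcholine challenge, given 144 s into a 300 s read after compound addition at 4 s (EC80 follows at 230 s). Cells were hM1-expressing CHO-K1, loaded 50 min with Fluo-4 AM. Curves used 11 points at 1:3 dilutions and four-parameter logistic fitting.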
On the technique in general: A change in cytosolic calcium serves as a functional read-out for many receptors and channels.

The mark [1] stands for this setting: Table 2, human M1, read-out: Human M1 EC50.
Where [2] appears, read: Table 1, mAChR M1 cell-based functional assay, PAM mode, species not given, read-out: EC50.

Where two headings read alike, the source gives them in different places.

In general, EC50 refers to the concentration at which the effect is half-maximal. Broadly, the Emax is the size of the effect at its maximum, as opposed to the concentration needed. For `Cn1ccc2nc(C(=O)NC3CC4(COC4)C3)cc(Cc3ccc(-c4cscn4)cc3)c21` [Compound 452, 1-methyl-N-(2-oxaspiro[3.3]heptan-6-yl)-7-[(4-thiazol-4-ylphenyl)methyl]pyrrolo[3,2-b]pyridine-5-carboxamide], the 50% effective concentration (EC50) under setting [1] was 339 nM. In addition, where the note is “Table 2, human M1”, the Emax was determined as 71.9%. On to `O=C(NCc1cc[nH]n1)c1cc(Cc2ccc(-n3cccn3)cc2)c2sccc2n1` [Compound 448, N-(1H-pyrazol-3-ylmethyl)-7-[(4-pyrazol-1-ylphenyl)methyl]thieno[3,2-b]pyridine-5-carboxamide], for which the 50% effective concentration (EC50) under setting [1] was determined as 795 nM. Also, under “Table 2, human M1”, the maximal response (Emax) was 67.8%. For `Cn1cc(-c2ccc(Cc3cc(C(=O)NC4CC5(COC5)C4)nc4ccn(C)c34)cn2)cn1` [Compound 471, 1-methyl-7-[[6-(1-methylpyrazol-4-yl)-3-pyridyl]methyl]-N-(2-oxaspiro[3.3]heptan-6-yl)pyrrolo[3,2-b]pyridine-5-carboxamide], in that order: 390 nM and 85.4%.

Take `Cn1ccc(-c2ccc(Cc3cc(C(=O)N[C@@H]4CC[C@H]4O)nc4ccsc34)cc2)n1` [Compound 251, N-[(1R,2R)-2-hydroxycyclobutyl]-7-[[4-(1-methylpyrazol-3-yl)phenyl]methyl]thieno[3,2-b]pyridine-5-carboxamide]: the 50% effective concentration (EC50) under setting [1] stood at 234 nM. The maximal effect (Emax) (Table 2, human M1) was 70.3%. As to `CO[C@H]1CCCC[C@@H]1NC(=O)c1cc(Oc2ccc(C)nc2)c2sccc2n1` [Compound 24, N-[(1S,2S)-2-methoxycyclohexyl]-7-[(6-methyl-3-pyridyl)oxy]thieno[3,2-b]pyridine-5-carboxamide], under setting [2], the EC50 is above 10000 nM.

As to `Cc1nc(-c2ccc(Cc3cc(C(=O)N[C@H]4CCC[C@@H]4O)nc4c(C)csc34)cc2)co1` [Compound 331, N-[(1S,2S)-2-hydroxycyclopentyl]-3-methyl-7-[[4-(2-methyloxazol-4-yl)phenyl]methyl]thieno[3,2-b]pyridine-5-carboxamide], the EC50 under setting [1] was 368 nM. Also, under “Table 2, human M1”, the Emax turned out to be 69.7%. For `Cn1ccc2nc(C(=O)N[C@H]3CCOC[C@@H]3O)cc(Cc3ccc(-c4cscn4)cc3)c21` [Compound 450, N-[(3R,4S)-3-hydroxytetrahydropyran-4-yl]-1-methyl-7-[(4-thiazol-4-ylphenyl)methyl]pyrrolo[3,2-b]pyridine-5-carboxamide], in that order: 6.89 nM and 71%. In the case of `O=C(N[C@H]1CCOC[C@@H]1O)c1cc(Cc2ccc(-c3nccs3)cc2)c2sccc2n1` [Compound 294], under setting [1], the EC50 was 15.7 nM. For the same molecule, the Emax (Table 2, human M1) was 71.1%.

With `CN1CCC(NC(=O)c2cc(Cc3ccc(-c4cscn4)cc3)c3sccc3n2)CC1` [Compound 211, N-(1-methyl-4-piperidyl)-7-[(4-thiazol-4-ylphenyl)methyl]thieno[3,2-b]pyridine-5-carboxamide], the concentration for a half-maximal effect (EC50) under setting [1] amounted to 1780 nM. Further, under “Table 2, human M1”, the Emax amounted to 82.6%. As to `CC1CC(NC(=O)c2cc(Cc3ccc(-c4cnn(C)c4)cc3)c3sccc3n2)CC(C)O1` (centres unmarked) [Compound 380, N-(2,6-dimethyltetrahydropyran-4-yl)-7-[[4-(1-methylpyrazol-4-yl)phenyl]methyl]thieno[3,2-b]pyridine-5-carboxamide], the EC50 under setting [1] is 287 nM. Besides, the maximum response (Emax) (Table 2, human M1) amounted to 64.5%.

With `O=C(NC1CCCCNC1=O)c1cc(Cc2ccc(-n3cccn3)cc2)c2sccc2n1` (centres unmarked) [Compound 79, N-(2-oxoazepan-3-yl)-7-[(4-pyrazol-1-ylphenyl)methyl]thieno[3,2-b]pyridine-5-carboxamide], the half-maximal effective concentration (EC50) under setting [1] came out at 397 nM. For the same molecule, the maximum response (Emax) (Table 2, human M1) was 70.5%. For `Cc1ccc(C(=O)c2cc(C(=O)N[C@@H]3CCCC[C@H]3O)nc3ccsc23)cn1` [Compound 145, N-[(1R,2R)-2-hydroxycyclohexyl]-7-(6-methylpyridine-3-carbonyl)thieno[3,2-b]pyridine-5-carboxamide], in that order: above 10000 nM and 41.6%. For `O=C(NC1CCCCNC1=O)c1cc(Cc2ccc(C(F)(F)F)nc2)c2sccc2n1` (centres unmarked) [Compound 98, N-(2-oxoazepan-3-yl)-7-[[6-(trifluoromethyl)-3-pyridyl]methyl]thieno[3,2-b]pyridine-5-carboxamide], in that order: 6000 nM and 66.6%. For `Cn1cc(-c2ccc(Cc3cc(C(=O)N[C@H]4CCCOC4)nc4ccsc34)cn2)cn1` [Compound 347, 7-[[6-(1-methylpyrazol-4-yl)-3-pyridyl]methyl]-N-[(3S)-tetrahydropyran-3-yl]thieno[3,2-b]pyridine-5-carboxamide], in that order: 499 nM and 82.2%. Take `O=C(N[C@@H]1CCC[C@H]1O)c1cc(Cc2ccc(-n3cccn3)cc2)c2sccc2n1` [Compound 71, N-[(1R,2R)-2-hydroxycyclopentyl]-7-[(4-pyrazol-1-ylphenyl)methyl]thieno[3,2-b]pyridine-5-carboxamide]: the concentration for a half-maximal effect (EC50) under setting [1] worked out at 80.3 nM. The Emax (Table 2, human M1) came out at 92.7%. For `O=C(NC1CC(F)(F)C1)c1cc(Cc2ccc(-c3nccs3)cc2)c2sccc2n1` [Compound 383], in that order: above 10000 nM and 30.4%. `Cn1ccc(-c2ccc(Cc3cc(C(=O)NCC4CCOCC4)nc4ccn(C)c34)cn2)n1` [Compound 508, 1-methyl-7-[[6-(1-methylpyrazol-3-yl)-3-pyridyl]methyl]-N-(tetrahydropyran-4-ylmethyl)pyrrolo[3,2-b]pyridine-5-carboxamide;]: under setting [1], the EC50 came to 2310 nM. Moreover, the Emax (Table 2, human M1) was determined as 79.9%. For `Cc1ccc(C(F)c2cc(C(=O)N[C@@H]3CCCC[C@H]3O)nc3ccsc23)cn1` (stereo partly drawn) [Compound 85, 7-[fluoro-(6-methyl-3-pyridyl)methyl]-N-[(1R,2R)-2-hydroxycyclohexyl]thieno[3,2-b]pyridine-5-carboxamide], in that order: 80.1 nM and 87.9%. For `Cn1cc(-c2ccc(Cc3cc(C(=O)NC4CCOC(C)(C)C4)nc4ccn(C)c34)cn2)cn1` (centres unmarked) [Compound 472, N-(2,2-dimethyltetrahydropyran-4-yl)-1-methyl-7-[[6-(1-methylpyrazol-4-yl)-3-pyridyl]methyl]pyrrolo[3,2-b]pyridine-5-carboxamide], in that order: 422 nM and 85.6%. For `CC1(C)CC(NC(=O)c2cc(Cc3ccc(-c4cncs4)cc3)c3sccc3n2)CCO1` (centres unmarked) [Compound 388, N-(2,2-dimethyltetrahydropyran-4-yl)-7-[(4-thiazol-5-ylphenyl)methyl]thieno[3,2-b]pyridine-5-carboxamide], in that order: 846 nM and 67.8%.

As for `COCC(C)NC(=O)c1cc(Cc2ccc(-c3cncs3)cc2)c2sccc2n1` (centres unmarked) [Compound 406, N-(2-methoxy-1-methyl-ethyl)-7-[(4-thiazol-5-ylphenyl)methyl]thieno[3,2-b]pyridine-5-carboxamide], under setting [1], the EC50 worked out at 5050 nM. Besides, the Emax (Table 2, human M1) came out at 59.1%. With `Cc1ncc(Cc2cc(C(=O)N[C@@H]3CCC[C@H]3O)nc3ccsc23)cn1` [Compound 125], under setting [1], the EC50 is above 10000 nM. Also, for the setting “Table 2, human M1”, the maximal effect (Emax) was determined as 59.1%.

Turning to `Cn1cc(-c2ccc(Oc3cc(C(=O)NC4CCOCC4)nc4ccsc34)c(F)c2)cn1` [Compound 4, 7-[2-fluoro-4-(1-methylpyrazol-4-yl)phenoxy]-N-tetrahydropyran-4-yl-thieno[3,2-b]pyridine-5-carboxamide], the half-maximal effective concentration (EC50) under setting [2] stood at 4990 nM.
